Earlier results as cited in patent US6025374A, “Azetidine, pyrrolidine and piperidine derivatives as 5HT1 receptor agonists” (Merck Sharp & Dohme, Ltd., priority 1994, dated 2000).

Conditions: therapeutic doses; literature

CNS(=O)(=O)Cc1ccc2[nH]cc(CCN(C)C)c2c1 [sumatriptan]
adverse events in humans: certain adverse cardiovascular events
